Measured values as given in US20100040552A1, “METHODS TO EVALUATE GLUCOCORTICOID RECEPTOR AGONISTS AND ANTAGONISTS FOR EFFECTS ON NEURON-LIKE CELLS” (ROSETTA INPHARMATICS LLC, priority 2005, published 2010).

Columns and labels:
Assay type in all cases: cell-based
Glucocorticoid Receptor [1] = molecular target: T1, Glucocorticoid Receptor (Homo sapiens, UniProt P04150); assay: Transactivation assay, MDA cells; set-up: host or cells: MDA cells; details: read-out: Transactivation, MDA Emax
T1 sequence (P04150 1-777): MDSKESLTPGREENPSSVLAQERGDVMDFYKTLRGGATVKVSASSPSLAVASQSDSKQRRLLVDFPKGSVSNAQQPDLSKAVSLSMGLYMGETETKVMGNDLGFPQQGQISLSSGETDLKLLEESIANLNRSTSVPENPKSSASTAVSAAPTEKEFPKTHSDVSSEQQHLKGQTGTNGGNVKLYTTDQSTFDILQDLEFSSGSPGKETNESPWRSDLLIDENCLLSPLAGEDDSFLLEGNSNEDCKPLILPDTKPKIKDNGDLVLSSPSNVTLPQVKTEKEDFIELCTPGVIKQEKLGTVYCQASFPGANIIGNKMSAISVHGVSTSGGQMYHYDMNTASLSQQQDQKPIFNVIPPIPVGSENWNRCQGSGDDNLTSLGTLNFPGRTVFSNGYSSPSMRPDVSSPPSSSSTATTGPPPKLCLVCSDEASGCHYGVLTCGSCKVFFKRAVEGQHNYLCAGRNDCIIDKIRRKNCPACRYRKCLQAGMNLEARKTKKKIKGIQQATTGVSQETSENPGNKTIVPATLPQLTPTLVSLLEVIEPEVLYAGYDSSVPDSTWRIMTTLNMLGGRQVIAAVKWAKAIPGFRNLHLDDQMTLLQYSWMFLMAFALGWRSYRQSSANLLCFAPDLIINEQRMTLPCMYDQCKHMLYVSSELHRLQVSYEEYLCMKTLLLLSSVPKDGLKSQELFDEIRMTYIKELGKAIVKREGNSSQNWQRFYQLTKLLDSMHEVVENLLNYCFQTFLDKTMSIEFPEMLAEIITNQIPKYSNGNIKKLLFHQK

A549 cells = assay: A549 cell molecular profiling experiment; details: 100 nM
Glucocorticoid Receptor [2] = molecular target: T1, Glucocorticoid Receptor; assay: Transactivation assay, A549 cells; details: A549, read-out: Transactivation, A549 Emax
Glucocorticoid Receptor [3] = molecular target: T1, Glucocorticoid Receptor; assay: Transrepression assay, COS cells; set-up: host or cells: COS cells; details: COS

C[C@@H]1C[C@H]2[C@@H]3CCC4=CC(=O)C=C[C@]4(C)[C@@]3(F)[C@@H](O)C[C@]2(C)[C@@]1(O)C(=O)CO [Dexamethasone, dexamethasone]
Emax (Glucocorticoid Receptor [1]): 125% | Up-regulated genes in category DMSO (<0%) (A549 cells; set of 1091 genes): 0 | Up-regulated genes in category Full (≧90%) (A549 cells; set of 1091 genes): 1087 | Up-regulated genes in category High (66.7-90%) (A549 cells; set of 1091 genes): 4 | Up-regulated genes in category Low (0-33.3%) (A549 cells; set of 1091 genes): 0 | Up-regulated genes in category Middle (33.3-66.7%) (A549 cells; set of 1091 genes): 0 | Down-regulated genes in category DMSO (<0%) (A549 cells; set of 1249 genes): 0 | Down-regulated genes in category Full (≧90%) (A549 cells; set of 1249 genes): 1237 | Down-regulated genes in category High (66.7-90%) (A549 cells; set of 1249 genes): 12 | Down-regulated genes in category Low (0-33.3%) (A549 cells; set of 1249 genes): 0 | Down-regulated genes in category Middle (33.3-66.7%) (A549 cells; set of 1249 genes): 0 | Emax (Glucocorticoid Receptor [2]): 118% | Emax at 0.3 µM (Glucocorticoid Receptor [3]; read-out: Transrepression, COS % Emax, 0.3 μM): 100% | Emax at 1 µM (Glucocorticoid Receptor [3]; read-out: Transrepression, COS % Emax, 1 uM): 100%
